From patent US20210223248A1 (priority 2018, published 2021)
Values joined by “and” are separate entries in the source; they are usually repeats but may differ in a detail not shown here. Equal entries are not always repeated.

Experiments:
[1] = tested on: relapsed and/or refractory CD19+ B-ALL; assay type: in vivo, human
[2] = tested on: relapsed and/or refractory CD19+ NHL; conditions: human, in vivo

| Compound | Odds Ratio (95% CI) for MRD-negative CR ([1]; univariate, fludarabine added to cyclophosphamide-based lymphodepletion (Y)) | HR (95% CI) for PFS [2] | HR for PFS [2] | Estimate, univariate association with Disease-Free Survival ([1]; human, in vivo) | Estimate, univariate association with Overall Survival ([1]; human, in vivo) | Exp (Coef) = hazard ratio for DFS ([1]; human, in vivo) | Exp (−Coef) for DFS ([1]; human, in vivo) | Hazard Ratio (95% CI) for DFS ([1]; human, in vivo) |
| --- | --- | --- | --- | --- | --- | --- | --- | --- |
| Nc1nc(F)nc2c1ncn2[C@@H]1O[C@H](CO)[C@@H](O)[C@@H]1O [Fludarabine, fludarabine] | 0.50 (0.03-3.31) | – | – | – | – | – | – | – |
| cyclophosphamide and fludarabine [Cy/Flu] | – | 1.92 (0.99-3.72) | 4.266 | 0.2967 | 0.4349 | 0.2490 | 4.0154 | 0.2777 (0.1095-0.7042) and 0.2794 (0.1109-0.7042) |
